Molecular target: Macrophage colony-stimulating factor 1 receptor (Homo sapiens, UniProt P07333)
Assay: Biochemical Assay: IC50 values were determined using the Z′-LYTE® activity assay, with ATP concentration used at Km app for the specific assay (500 μM ATP for CSF-1R (FMS) and 75 μM ATP for KDR (VEGFR2)).The Z′-LYTE® biochemical assay employs a fluorescence-based, coupled-enzyme format and is based on the differential sensitivity of phosphorylated and non-phosphorylated peptides to proteolytic …

Macrophage colony-stimulating factor 1 receptor, sequence (P07333 whole entry): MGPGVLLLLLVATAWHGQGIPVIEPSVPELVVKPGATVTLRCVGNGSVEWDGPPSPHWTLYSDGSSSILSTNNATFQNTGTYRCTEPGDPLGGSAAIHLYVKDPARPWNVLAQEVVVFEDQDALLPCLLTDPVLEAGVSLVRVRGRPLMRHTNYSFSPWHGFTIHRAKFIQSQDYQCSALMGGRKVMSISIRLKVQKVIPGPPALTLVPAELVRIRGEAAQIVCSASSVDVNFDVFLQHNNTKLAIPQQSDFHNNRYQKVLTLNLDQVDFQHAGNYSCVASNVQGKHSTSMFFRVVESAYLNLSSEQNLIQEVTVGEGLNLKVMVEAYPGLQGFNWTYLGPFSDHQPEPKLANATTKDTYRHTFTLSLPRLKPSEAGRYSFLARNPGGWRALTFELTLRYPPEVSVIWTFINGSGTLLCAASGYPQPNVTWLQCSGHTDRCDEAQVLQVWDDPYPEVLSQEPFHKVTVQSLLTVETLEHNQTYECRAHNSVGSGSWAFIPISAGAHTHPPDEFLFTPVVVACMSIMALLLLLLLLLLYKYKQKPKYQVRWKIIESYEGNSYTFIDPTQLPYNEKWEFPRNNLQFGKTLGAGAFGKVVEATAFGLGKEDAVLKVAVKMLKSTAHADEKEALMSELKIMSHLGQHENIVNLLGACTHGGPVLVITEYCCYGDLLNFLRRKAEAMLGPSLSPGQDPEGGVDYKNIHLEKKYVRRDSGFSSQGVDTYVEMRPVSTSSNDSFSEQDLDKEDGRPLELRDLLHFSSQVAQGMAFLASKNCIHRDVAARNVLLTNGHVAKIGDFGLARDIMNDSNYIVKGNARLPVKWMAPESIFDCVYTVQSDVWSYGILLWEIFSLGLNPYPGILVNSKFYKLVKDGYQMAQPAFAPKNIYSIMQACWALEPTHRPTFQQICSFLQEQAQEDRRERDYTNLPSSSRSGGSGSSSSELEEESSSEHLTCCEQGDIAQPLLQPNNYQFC

SMILES | IC50 [nM]
Cc1cc(OCCCN2C[C@@H](C)N[C@@H](C)C2)c2oc3cc(Oc4ccc(CCC(=O)NC5CCCC5)nc4)ccc3c(=O)c2c1 | < 100
Cc1cc(OCCCN(C)C)c2oc3cc(Oc4cccc(NC(=O)Nc5ccccc5)c4)ccc3c(=O)c2c1 | < 100
Cc1cc(OCCN(C)C)c2oc3cc(Oc4cccc(NC(=O)Nc5ccccc5)c4)ccc3c(=O)c2c1 | < 100
Cc1cc(OCCCN(C)C)c2oc3cc(Oc4cccc(C(=O)Nc5ccccc5)c4)ccc3c(=O)c2c1 | < 100
Cc1cc(OCCN(C)C)c2oc3cc(Oc4ccc(CCC(=O)N5CCCC5)nc4)ccc3c(=O)c2c1 | < 100
Cc1cc(OCCN(C)C)c2oc3cc(Oc4cccc(C(=O)Nc5ccccc5)c4)ccc3c(=O)c2c1 | < 100

From ChEMBL document CHEMBL5728507, “Tricyclic heterocyclic derivatives and uses thereof” (2021)
